Like-named read-outs stand apart in the source and are kept apart here. Where a SMILES comes first, the peptide text is derived from it. [ ]: non-standard residue; d: D form. The star is where a group is joined. Dansyl = CN(C)c1cccc2c(S(=O)(=O)*)cccc12; 2Nal = N[C@@H](Cc1ccc2ccccc2c1)C(=O)O; dNle = CCCC[C@@H](N)C(=O)O; dAbu = CC[C@@H](N)C(=O)O; Ahx = NCCCCCC(=O)O; βAla = NCCC(=O)O; Sar = CNCC(=O)O
How the values were obtained:
[1] = test system: fresh human RBCs; assay type: cell-based; conditions: red cells of human, 1 h, 250
Description: To assess the nonspecific lytic properties of each compounds disclosed herein, each mentioned compound was tested for hemolytic properties against fresh human RBCs. Briefly, donor blood was drawn into a K2EDTA anticoagulant tube from multiple O+ donors. The blood was washed 3 times in PBS. RBCs were diluted to 2% in PBS and compounds were added at various concentrations. Samples were incubated at 37 C for 1 hr, then centrifuged at 2200 rpm for 5 min. Supernatants were measured for absorbance at 450 nm or 405 nm. The percentage hemolysis was calculated as lysis relative to 1% Triton X-100 incubation.

[2] = test system: SSP-25 cells; assay: xCELLigence cell death assay in SSP-25 cells (cellular assay for RAD51 inhibition); assay type: cell-based; conditions: concentration gradient added at 20 hour mark, only values with R^>0.85 shown
Description: The efficacy of the peptides described herein was assessed by their ability to cause death in SSP-25 cells, which have amplification of RAD51 and are dependent on its activity.
First, 5,000 SSP25 cells were plated, and adherence and growth was measured for 20 hours using live measurements of current impedance through the plate using the xCELLigence™ instrument. At the 20 hour mark, a concentration gradient of each compound or a PBS control was added to the SSP-25 cells, which were cultured in […] RMPI media with 10% FBS. […] Only values with confidence and R^>0.85 are shown.

[3] = in vitro; conditions: human, microsomes
Description: (§1) For HLM and MLM stability studies, each compound was incubated with the liver microsome mixture for up to an hour at 37 C in the presence of NADPH.
(§2) After the incubations, the reactions were stopped and the compounds were analyzed according to the method developed for each.

[4] = in vitro; conditions: mouse, serum
Description: Serum stability data was obtained using the appropriate animal serum, each incubated with the compound for up to two hours at 37 C.

[5] = in vitro; conditions: mouse, microsomes
Description: as §1, §2

[6] = Mouse pharmacokinetics, IV and IP dosing; assay type: in vivo, mice; conditions: for Vd / half-life: iv, 1 mg/kg
Description: The pharmocokinetic parameters in mice by both intravenous (IV) and intraperitoneal (IP) dosing, as well as the serum and microsome stability for each of compound 22, 23, 24, and 25 was determined. Bioanalytical methods were developed for each compound using an LC-MS/MS method with LLOQ>100 ng/ml.
For in-vivo PK work, at least 3 mice were used per timepoint. For each compound, the animals were injected either IV or IP with the compound. IV injections used 1 mg/kg, and IP injections were at 15 mg/kg. Blood was collected at the indicated timepoints and analyzed according to the bioanalytical method developed.

Compound: CCCC[C@@H](NC(=O)[C@@H](CC(C)C)NC(C)=O)C(=O)N[C@H](CCCNC(=N)N)C(=O)N[C@H](CC)C(=O)N[C@@H](C(=O)N[C@H](CCCNC(=N)N)C(=O)N[C@H](CC(C)C)C(=O)N[C@H](CCCNC(=N)N)C(=O)N[C@@H](C(=O)NCC(=O)N[C@H](CC(C)C)C(=O)N[C@H](CCCNC(=N)N)C(=O)N[C@H](CCCCN)C(=O)N[C@H](CCCNC(=N)N)C(=O)N[C@H](CCCNC(=N)N)C(=O)N[C@H](CCCNC(=N)N)C(=O)N[C@H](CCCNC(=N)N)C(=O)N[C@H](CCCNC(=N)N)C(=O)NCC(=O)N[C@@H](Cc1ccc2ccccc2c1)C(N)=O)C(C)C)C(C)C [Compound 15, Ac-l{d-norLeucine}r(abu)vrlrvGlrkrrrrrGΦ-NH2] (Ac-[dL][dNle][dR][dAbu][dV][dR][dL][dR][dV]G[dL][dR][dK][dR][dR][dR][dR][dR]G[2Nal]-NH2)
- % Hemolysis (250 uM) [1]: 49%
- IC50 [2]: 7.2 µM

Compound: CCCC[C@@H](NC(=O)[C@@H](CC(C)C)NC(C)=O)C(=O)N[C@H](CCCNC(=N)N)C(=O)N[C@H](CO)C(=O)N[C@@H](C(=O)N[C@H](CCCNC(=N)N)C(=O)N[C@H](CC(C)C)C(=O)N[C@H](CCCNC(=N)N)C(=O)N[C@@H](C(=O)NCCC(=O)N[C@H](CC(C)C)C(=O)N[C@H](CCCNC(=N)N)C(=O)N[C@H](CCCCN)C(=O)N[C@H](CCCNC(=N)N)C(=O)N[C@H](CCCNC(=N)N)C(=O)N[C@H](CCCNC(=N)N)C(=O)N[C@H](CCCNC(=N)N)C(=O)N[C@H](CCCNC(=N)N)C(=O)NCC(=O)N[C@@H](Cc1ccc2ccccc2c1)C(N)=O)C(C)C)C(C)C [Compound 17, Ac-l{d-norLeucine}rsvdrv[beta-ALA]lrkrrrrrGΦ-NH2] (Ac-[dL][dNle][dR][dS][dV][dR][dL][dR][dV][βAla][dL][dR][dK][dR][dR][dR][dR][dR]G[2Nal]-NH2)
- % Hemolysis (250 uM) [1]: 32%
- IC50 [2]: 20 µM

Compound: CCCC[C@@H](NC(=O)[C@@H](CCCNC(=N)N)NC(=O)[C@@H](CC(C)C)NC(=O)[C@@H](CCCNC(=N)N)NC(=O)[C@@H](CCCNC(=N)N)NC(=O)[C@@H](CC)NC(=O)[C@@H](CCCNC(=N)N)NC(=O)[C@@H](CCCC)NC(=O)[C@@H](CC(C)C)NC(C)=O)C(=O)NCCC(=O)N[C@H](CC(C)C)C(=O)N[C@H](CCCNC(=N)N)C(=O)N[C@H](CCCCN)C(=O)N[C@H](CCCNC(=N)N)C(=O)N[C@H](CCCNC(=N)N)C(=O)N[C@H](CCCNC(=N)N)C(=O)N[C@H](CCCNC(=N)N)C(=O)N[C@H](CCCNC(=N)N)C(=O)NCC(=O)N[C@@H](Cc1ccc2ccccc2c1)C(N)=O [Compound 18, Ac-l{d-norLeucine}r(abu)rrlr[d-norLeucine][beta-ALA]lrkrrrrrGΦ-NH2] (Ac-[dL][dNle][dR][dAbu][dR][dR][dL][dR][dNle][βAla][dL][dR][dK][dR][dR][dR][dR][dR]G[2Nal]-NH2)
- % Hemolysis (250 uM) [1]: 17%
- IC50 [2]: 17.8 µM

Compound: CCCC[C@@H](NC(=O)[C@@H](CC(C)C)NC(=O)CN(C)S(=O)(=O)c1cccc2c(N(C)C)cccc12)C(=O)N[C@H](CCCNC(=N)N)C(=O)N[C@H](CO)C(=O)N[C@@H](C(=O)N[C@H](CCCNC(=N)N)C(=O)N[C@H](CC(C)C)C(=O)N[C@H](CCCNC(=N)N)C(=O)N[C@@H](C(=O)NCC(=O)N[C@H](CC(C)C)C(=O)N[C@H](CCCNC(=N)N)C(=O)N[C@H](CCCCN)C(=O)N[C@H](CCCNC(=N)N)C(=O)N[C@H](CCCNC(=N)N)C(=O)N[C@H](CCCNC(=N)N)C(=O)N[C@H](CCCNC(=N)N)C(=O)N[C@H](CCCNC(=N)N)C(N)=O)C(C)C)C(C)C [Compound 19, DANSYL-Sarcosine-l{d-norLeucine}rsvrlrvGlrkrrrrr-NH2] (Dansyl-[Sar][dL][dNle][dR][dS][dV][dR][dL][dR][dV]G[dL][dR][dK][dR][dR][dR][dR][dR]-NH2)
- % Hemolysis (250 uM) [1]: 86%

Compound: CCCC[C@@H](NC(=O)[C@@H](CC(C)C)NC(=O)CN(C)S(=O)(=O)c1cccc2c(N(C)C)cccc12)C(=O)N[C@H](CCCNC(=N)N)C(=O)N[C@H](CO)C(=O)N[C@@H](C(=O)N[C@H](CCCNC(=N)N)C(=O)N[C@H](CC(C)C)C(=O)N[C@H](CCCNC(=N)N)C(=O)N[C@@H](C(=O)NCC(=O)N[C@H](CC(C)C)C(=O)N[C@H](CCCNC(=N)N)C(=O)N[C@H](CCCNC(=N)N)C(=O)N[C@H](CCCNC(=N)N)C(=O)N[C@H](CCCNC(=N)N)C(=O)N[C@H](CCCNC(=N)N)C(=O)N[C@H](CCCNC(=N)N)C(=O)N(C)CC(=O)N(C)CC(=O)OC)C(C)C)C(C)C [Compound 20, DANSYL-Sarcosine-l{d-norLeucine}rsvrlrvGlrrrrrr-sarcosine-sarcosine-OMe]
- % Hemolysis (250 uM) [1]: 84%

Compound: CCCC[C@@H](NC(=O)[C@@H](CC(C)C)NC(C)=O)C(=O)N[C@H](CCCNC(=N)N)C(=O)N[C@H](CO)C(=O)N[C@@H](C(=O)N[C@H](CCCNC(=N)N)C(=O)N[C@H](CC(C)C)C(=O)N[C@H](CCCNC(=N)N)C(=O)N[C@@H](C(=O)NCC(=O)N[C@H](CC(C)C)C(=O)N[C@H](CCCNC(=N)N)C(=O)N[C@H](CCCNC(=N)N)C(=O)N[C@H](CCCNC(=N)N)C(=O)N[C@H](CCCNC(=N)N)C(=O)N[C@H](CCCNC(=N)N)C(=O)N[C@H](CCCNC(=N)N)C(=O)N(C)CC(=O)N(C)CC(=O)OC)C(C)C)C(C)C [Compound 21, Ac-l{d-norLeucine}rsvrlrvGlrrrrrr-sarcosine-sarcosine-OMe]
- % Hemolysis (250 uM) [1]: 31%
- IC50 [2]: 25 µM

Compound: CCCC[C@@H](NC(=O)[C@@H](CC(C)C)NC(C)=O)C(=O)N[C@H](CCCNC(=N)N)C(=O)N[C@H](C)C(=O)N[C@@H](C(=O)N[C@H](CCCNC(=N)N)C(=O)N[C@H](CC(C)C)C(=O)N[C@H](CCCNC(=N)N)C(=O)N[C@@H](C(=O)NCCC(=O)N[C@H](CC(C)C)C(=O)N[C@H](CCCNC(=N)N)C(=O)NCCCCCC(=O)N[C@H](CCCNC(=N)N)C(=O)NCCCCCC(=O)N[C@H](CCCNC(=N)N)C(=O)NCCCCCC(=O)N[C@H](CCCNC(=N)N)C(=O)NCCCCCC(=O)N[C@H](CCCNC(=N)N)C(=O)NCCCCCC(=O)N[C@H](CCCNC(=N)N)C(N)=O)C(C)C)C(C)C [Compound 23, Ac-l{d-norLeucine}ravrlrv[beta-ALA]lr(Ahx)r(Ahx)r(Ahx)r(Ahx)r(Ahx)r-NH2] (Ac-[dL][dNle][dR][dA][dV][dR][dL][dR][dV][βAla][dL][dR][Ahx][dR][Ahx][dR][Ahx][dR][Ahx][dR][Ahx][dR]-NH2)
- half-life [3]: 108 min
- half-life [4]: > 500 min
- half-life [5]: 41.8 min
- % Hemolysis (250 uM) [1]: 3%
- IC50 [2]: 20.6 µM
- AUC Extr ([6]; 1 mg/kg IV): 28.5%
- AUC(0-inf) ([6]; in vivo, 1 mg/kg IV): 490 ng·h/mL
- AUC(0-t) ([6]; in vivo, 1 mg/kg IV): 347 ng·h/mL
- C0 ([6]; in vivo, 1 mg/kg IV): 1480 ng/mL
- MRT inf ([6]; in vivo, 1 mg/kg IV): 44.3 min
- clearance ([6]; in vivo, 1 mg/kg IV): 36.1 mL/min/kg
- AUC(0-inf) ([6]; in vivo, 15 mg/kg IP): 341 ng·h/mL
- MRT inf ([6]; in vivo, 15 mg/kg IP): 394 min
- Vd ([6]; in vivo, 1 mg/kg IV, read-out: Vss): 1.56 L/kg
- Vd ([6]; in vivo, 1 mg/kg IV, read-out: Vz): 1.71 L/kg
- half-life ([6]; in vivo, 1 mg/kg IV, read-out: t½ (converted)): 33.9 min
- half-life ([6]; in vivo, IV (1 mg/kg), read-out: Half-life Mouse IV): 33.8 min

Compound: Ac-rrrrrraGphlrkvralrslGlrlaq-NH2 (Ac-[dR][dR][dR][dR][dR][dR][dA]G[dP][dH][dL][dR][dK][dV][dR][dA][dL][dR][dS][dL]G[dL][dR][dL][dA][dQ]-NH2; SMILES CC(=O)N[C@H](CCCNC(=N)N)C(=O)N[C@H](CCCNC(=N)N)C(=O)N[C@H](CCCNC(=N)N)C(=O)N[C@H](CCCNC(=N)N)C(=O)N[C@H](CCCNC(=N)N)C(=O)N[C@H](CCCNC(=N)N)C(=O)N[C@H](C)C(=O)NCC(=O)N1CCC[C@@H]1C(=O)N[C@H](Cc1c[nH]cn1)C(=O)N[C@H](CC(C)C)C(=O)N[C@H](CCCNC(=N)N)C(=O)N[C@H](CCCCN)C(=O)N[C@@H](C(=O)N[C@H](CCCNC(=N)N)C(=O)N[C@H](C)C(=O)N[C@H](CC(C)C)C(=O)N[C@H](CCCNC(=N)N)C(=O)N[C@H](CO)C(=O)N[C@H](CC(C)C)C(=O)NCC(=O)N[C@H](CC(C)C)C(=O)N[C@H](CCCNC(=N)N)C(=O)N[C@H](CC(C)C)C(=O)N[C@H](C)C(=O)N[C@H](CCC(N)=O)C(N)=O)C(C)C) [Compound 6]
- IC50 [2]: 417 µM

— patent US12590126B2, “Compounds for selective disruption of protein-protein interactions” (SyntheX, Inc., priority 2017, dated 2026)
